{"source": "patent US8008324B2", "about": "“Indole derivatives and their use as medicament” (AEterna Zentaris GmbH, priority 2000, dated 2011)", "key": {"[1]": {"tested_on": "human breast adenocarcinoma line MCF7 (ATCC HTB22)", "assay": "XTT proliferation test, MCF7", "format": "cell-based", "method": "(§1) In a proliferation test, the antiproliferative activity of the substance D-69429 was examined using established tumor cell lines. In the test used, the cellular dehydrogenation activity is determined, which makes it possible to determine the vitality of the cell and, indirectly, the cell count. The cell lines used are the human cervical carcinoma cell line KB/HeLa (ATCC CCL17), the murine lymphocyte a leukaemia L1210 (ATCC CCL-219), the human breast adenocarcinoma line MCF7 (ATCC HTB22) and the ovary adenocarcinoma line SKOV-3 (ATCC HTB77). These are established cell lines which are very well characterized and were obtained from ATCC and cultured.\n(§2) The adherently growing tumor cell lines HeLa/KB, SKOV-3 and MCF7 and the L1210 leukaemia line, which grows in suspension, were cultivated under standard conditions in an incubator with gas inlet at 37° C., 5% CO2 and 95% atmospheric humidity. […]\n(§3) For the XTT assay, 1 mg/ml of XTT (sodium 3′-[1-(phenylaminocarbonyl)-3,4-tetrazolium]-bis(4-methoxy-6-nitro)benzenesulfonic acid) is dissolved in RPMI-1640 medium without Phenol Red. […] The cell plates are then incubated in the incubator with gas inlet for a further 3 h, and the optical density (OD490nm) is determined in a photometer.\n(§4) Using the OD490nm obtained, the inhibition in percent relative to the control is calculated. […]"}, "[2]": {"tested_on": "ovary adenocarcinoma line SKOV-3 (ATCC HTB77)", "assay": "XTT proliferation test, SKOV-3", "format": "cell-based, human", "details": "SKOV-3, eight substance concentrations", "method": "as §1, §2, §3, §4"}, "[3]": {"tested_on": "murine lymphocyte leukaemia L1210 (ATCC CCL-219)", "assay": "XTT proliferation test, L1210", "format": "cell-based", "details": "L-1210, eight substance concentrations", "method": "as §1, §2, §3, §4"}, "[4]": {"tested_on": "human cervical carcinoma cell line KB/HeLa (ATCC CCL17)", "assay": "XTT proliferation test, KB/HeLa", "format": "cell-based", "details": "eight substance concentrations", "method": "as §1, §2, §3, §4"}}, "data": [{"smiles": "Cc1ccc2cc(NC(=O)C(=O)c3cn(Cc4ccc(Cl)cc4)c4ccccc34)ccc2n1", "note": "[Example D-69429, N-(2-methyl-6-quinolyl)-[1-(4-chlorobenzyl)indole-3-yl]glyoxylamide]", "values": [{"measurement": "inhibition at 3.16 µg/mL", "setting": "[1]; MCF7, at 3.16 μg/ml, test period 48 h", "value": 18, "unit": "%"}, {"measurement": "IC50", "setting": "[1]; MCF7, test period 48 h, regression analysis, read-out: antiproliferative activity (stated as >3.16)", "value": "> 3.16", "unit": "µg/mL"}, {"measurement": "antiproliferative action", "setting": "[2]", "value": "highly potent antiproliferative action"}, {"measurement": "antiproliferative action", "setting": "[3]", "value": "highly potent antiproliferative action"}, {"measurement": "antiproliferative action", "setting": "[4]", "value": "highly potent antiproliferative action"}, {"measurement": "melting point", "value": "182 to 185", "unit": "°C"}]}]}
